Reference: PMC5123632 (2016)

System: nasT'FRET (DNA, G4) GGGAGCGGGACGGGGGCCGGG
Test: FRET melting
Details: 100 mM Na+; 10 mM sodium cacodylate pH 7.4; 1 μM ligand (stated for ligand 1)

`C[n+]1ccc(-c2c3nc(c(-c4cc[n+](C)cc4)c4ccc([nH]4)c(-c4cc[n+](C)cc4)c4nc(c(-c5cc[n+](C)cc5)c5ccc2[nH]5)C=C4)C=C3)cc1` was tested, and the ΔTm was 30 °C.
